The values below are quoted from earlier work in patent US20250319022A1, “CONCENTRATED SOLUTIONS COMPRISING SODIUM 5,10-METHYLENE-(6R)-TETRAHYDROFOLATE” (Merck Patent GMBH, priority 2022, published 2025).

In the case of `Nc1nc2c(c(=O)[nH]1)N1CN(c3ccc(C(=O)N[C@@H](CCC(=O)O)C(=O)O)cc3)C[C@H]1CN2` [5,10-methylene-(6R,S)-tetrahydrofolic acid], the “purity after 7 hours” value (7 hours after dissolution) is on record as 84%. The “purity after 24 hours compared to the starting purity (% normalized purity)” value (24 hours following dissolution in water) is 44.9%. Besides, the “loss of purity per hour (degradation rate)” value (reconstituted lyophilizate, linear regression of stability profile) is 2.3 % purity per hour.
